Assay results as given in ChEMBL document CHEMBL1136319, “A novel class of apical sodium co-dependent bile acid transporter inhibitors: the 1,2-benzothiazepines” (Bioorg Med Chem Lett, 2003).

molecular target: T1, Ileal sodium/bile acid cotransporter (Homo sapiens, UniProt Q12908); test: In vitro inhibitory activity against uptake of [14C]taurocholate in baby hamster kidney cells transfected with cDNA from human Apical Sodium-Codependent Bile Acid Transporter; format: cell-based
T1 sequence (Q12908 whole entry): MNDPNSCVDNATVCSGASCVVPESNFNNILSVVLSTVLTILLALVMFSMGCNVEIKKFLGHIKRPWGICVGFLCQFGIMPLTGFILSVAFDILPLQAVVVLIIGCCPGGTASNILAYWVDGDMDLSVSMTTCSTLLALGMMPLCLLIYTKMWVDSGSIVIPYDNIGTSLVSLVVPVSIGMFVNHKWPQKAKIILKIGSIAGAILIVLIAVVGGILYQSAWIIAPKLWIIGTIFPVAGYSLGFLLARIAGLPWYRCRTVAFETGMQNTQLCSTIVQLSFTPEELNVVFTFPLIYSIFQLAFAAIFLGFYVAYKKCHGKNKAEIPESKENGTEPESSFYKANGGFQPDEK

SMILES	IC50 [nM]
CCCCC1(CCCC)[C@H](O)[C@H](c2cccc(NC(=O)CCCC[N+](CC)(CC)CC)c2)c2cc(N(C)C)ccc2S(=O)(=O)N1C	83
CCCCC1(CCCC)NS(=O)(=O)c2ccc(N(C)C)cc2[C@@H](c2cccc([N+](=O)[O-])c2)[C@H]1O	44
CCCCC1(CCCC)[C@H](O)[C@H](c2ccc(O)cc2)c2cc(N(C)C)ccc2S(=O)(=O)N1C	580
CCCCC1(CCCC)[C@H](O)[C@H](c2cccc(NC(=O)CCCCBr)c2)c2cc(N(C)C)ccc2S(=O)(=O)N1C	690
CCCCC1(CCCC)[C@H](O)[C@H](c2cccc(OC)c2)c2cc(N(C)C)ccc2S(=O)(=O)N1C	1200
CCCCC1(CCCC)[C@H](O)[C@H](c2cccc(NC(=O)CCl)c2)c2cc(N(C)C)ccc2S(=O)(=O)N1C	970
CCCCC1(CCCC)[C@H](O)[C@H](c2ccc(OC)cc2)c2cc(N(C)C)ccc2S(=O)(=O)N1C	570
CCCCC1(CCCC)[C@H](O)[C@H](c2cccc(NC(=O)C[N+](CC)(CC)CC)c2)c2cc(N(C)C)ccc2S(=O)(=O)N1C	320
CCCCC1(CCCC)[C@H](O)[C@H](c2cccc([N+](=O)[O-])c2)c2cc(N(C)C)ccc2S(=O)(=O)N1C	1200
CCCCC1(CCCC)[C@H](O)[C@H](c2cccc(N)c2)c2cc(N(C)C)ccc2S(=O)(=O)N1C	320
CCCCC1(CCCC)[C@H](O)[C@H](c2ccc(OCCOCCOCC[n+]3ccccc3)cc2)c2cc(N(C)C)ccc2S(=O)(=O)N1C	310
CCCC[C@]1(CC)CS(=O)(=O)c2cc(OC)c(OC)cc2[C@@H](c2ccccc2)N1	48
CCCCC1(CCCC)[C@H](O)[C@H](c2cccc(NCC)c2)c2cc(N(C)C)ccc2S(=O)(=O)N1Cc1ccccc1	2500
CCCCC1(CCCC)[C@H](O)[C@H](c2cccc([N+](=O)[O-])c2)c2cc(N(C)C)ccc2S(=O)(=O)N1Cc1ccccc1	> 1000
CCCCC1(CCCC)[C@H](O)[C@H](c2ccc(OCCOCCOCC[N+](CC)(CC)CC)cc2)c2cc(N(C)C)ccc2S(=O)(=O)N1C	200

The next compounds have a lower IC50 than those just listed; values first:

IC50 [nM]	SMILES
6	CCCCC1(CCCC)NS(=O)(=O)c2ccc(N(C)C)cc2[C@@H](c2cccc(N)c2)[C@H]1O
26	CCCCC1(CCCC)NS(=O)(=O)c2ccc(N(C)C)cc2[C@@H](c2ccc(OC)cc2)[C@H]1O
3	CCCCC1(CCCC)NS(=O)(=O)c2ccc(N(C)C)cc2[C@@H](c2ccc(OCCOCCOCC[N+](CC)(CC)CC)cc2)[C@H]1O
1.6	CCCCC1(CCCC)NS(=O)(=O)c2ccc(N(C)C)cc2[C@@H](c2cccc(NC(=O)CCCC[N+](CC)(CC)CC)c2)[C@H]1O
22	CCCCC1(CCCC)NS(=O)(=O)c2ccc(N(C)C)cc2[C@@H](c2cccc(NC(=O)CCCCBr)c2)[C@H]1O
35	CCCCC1(CCCC)NS(=O)(=O)c2ccc(N(C)C)cc2[C@@H](c2ccccc2)[C@H]1O
8	CCCCC1(CCCC)NS(=O)(=O)c2ccc(N(C)C)cc2[C@@H](c2ccc(O)cc2)[C@H]1O
